Test results from the NIST ThermoML archive (doi:10.1021/je0500633).
± gives the expanded uncertainty stated by the source.

What was measured:
[1] = 101.33 kPa, Liquid; for viscosity: Falling or rolling sphere viscometry
[2] = xn = mol fraction of the nth substance listed; settings: 101.33 kPa, Liquid; for viscosity: Falling or rolling sphere viscometry

CCO [ethanol]
[1]
Settings | mass density [kg/m3] | viscosity [mPa·s]
293.15 K | 788.24 ± 0.62 | 1.16 ± 0.011
303.15 K | 780.73 ± 0.63 | 0.968 ± 0.009
313.15 K | 771.98 ± 0.64 | 0.81 ± 0.008

CCO [ethanol] + CCCCCC(=O)OCC
[2], x2 = 0
Settings | mass density [kg/m3] | viscosity [mPa·s]
293.15 K | 788.24 ± 0.62 | 1.16 ± 0.011
303.15 K | 780.73 ± 0.63 | 0.968 ± 0.009
313.15 K | 771.98 ± 0.64 | 0.81 ± 0.008

CCO [ethanol] + CCOC(=O)C(C)CC
[2], x2 = 0
Settings | mass density [kg/m3] | viscosity [mPa·s]
293.15 K | 788.24 ± 0.62 | 1.16 ± 0.011
303.15 K | 780.73 ± 0.63 | 0.968 ± 0.009
313.15 K | 771.98 ± 0.64 | 0.81 ± 0.008

CCOC(=O)C(C)CC (configuration not stated) [ethyl 2-methylbutanoate]
[1]
Settings | mass density [kg/m3] | viscosity [mPa·s]
293.15 K | 869.73 ± 0.57 | 0.831 ± 0.008
303.15 K | 861.48 ± 0.58 | 0.723 ± 0.007
313.15 K | 853.41 ± 0.58 | 0.635 ± 0.006

CCOC(=O)C(C)CC (configuration not stated) [ethyl 2-methylbutanoate] + CCCO
[2], x1 = 1
Settings | mass density [kg/m3] | viscosity [mPa·s]
293.15 K | 869.73 ± 0.57 | 0.831 ± 0.008
303.15 K | 861.48 ± 0.58 | 0.723 ± 0.007
313.15 K | 853.41 ± 0.58 | 0.635 ± 0.006

CCOC(=O)C(C)CC (configuration not stated) [ethyl 2-methylbutanoate] + CCO
[2], x1 = 1
Settings | mass density [kg/m3] | viscosity [mPa·s]
293.15 K | 869.73 ± 0.57 | 0.831 ± 0.008
303.15 K | 861.48 ± 0.58 | 0.723 ± 0.007
313.15 K | 853.41 ± 0.58 | 0.635 ± 0.006

CCOC(=O)C(C)CC (configuration not stated) [ethyl 2-methylbutanoate] + CO
[2], x1 = 1
Settings | mass density [kg/m3] | viscosity [mPa·s]
293.15 K | 869.73 ± 0.57 | 0.831 ± 0.008
303.15 K | 861.48 ± 0.58 | 0.723 ± 0.007
313.15 K | 853.41 ± 0.58 | 0.635 ± 0.006

CCCCCC(=O)OCC [ethyl hexanoate]
[1]
Settings | mass density [kg/m3] | viscosity [mPa·s]
293.15 K | 879.01 ± 4 | 0.816 ± 0.008
303.15 K | 869.31 ± 4 | 0.704 ± 0.007
313.15 K | 863.28 ± 4 | 0.614 ± 0.006

CCCCCC(=O)OCC [ethyl hexanoate] + CCCO
[2], x1 = 1
Settings | mass density [kg/m3] | viscosity [mPa·s]
293.15 K | 879.01 ± 0.58 | 0.816 ± 0.008
303.15 K | 869.31 ± 0.57 | 0.704 ± 0.007
313.15 K | 863.28 ± 0.56 | 0.614 ± 0.006

CCCCCC(=O)OCC [ethyl hexanoate] + CCO
[2], x1 = 1
Settings | mass density [kg/m3] | viscosity [mPa·s]
293.15 K | 879.01 ± 0.58 | 0.816 ± 0.008
303.15 K | 869.31 ± 0.57 | 0.704 ± 0.007
313.15 K | 863.28 ± 0.56 | 0.614 ± 0.006

CCCCCC(=O)OCC [ethyl hexanoate] + CO
[2], x1 = 1
Settings | mass density [kg/m3] | viscosity [mPa·s]
293.15 K | 879.01 ± 0.58 | 0.816 ± 0.008
303.15 K | 869.31 ± 0.57 | 0.704 ± 0.007
313.15 K | 863.28 ± 0.56 | 0.614 ± 0.006

CO [methanol]
[1]
Settings | mass density [kg/m3] | viscosity [mPa·s]
293.15 K | 791.08 ± 0.63 | 0.577 ± 0.005
303.15 K | 781.95 ± 0.64 | 0.512 ± 0.005
313.15 K | 772.01 ± 0.65 | 0.447 ± 0.004

CO [methanol] + CCCCCC(=O)OCC
[2], x2 = 0
Settings | mass density [kg/m3] | viscosity [mPa·s]
293.15 K | 791.08 ± 0.63 | 0.577 ± 0.005
303.15 K | 781.95 ± 0.64 | 0.512 ± 0.005
313.15 K | 772.01 ± 0.65 | 0.447 ± 0.004

CO [methanol] + CCOC(=O)C(C)CC
[2], x2 = 0
Settings | mass density [kg/m3] | viscosity [mPa·s]
293.15 K | 791.08 ± 0.63 | 0.577 ± 0.005
303.15 K | 781.95 ± 0.64 | 0.512 ± 0.005
313.15 K | 772.01 ± 0.65 | 0.447 ± 0.004

CCCO [propan-1-ol]
[1]
Settings | mass density [kg/m3] | viscosity [mPa·s]
293.15 K | 803.64 ± 0.61 | 2.188 ± 0.021
303.15 K | 795.48 ± 0.62 | 1.713 ± 0.016
313.15 K | 787.02 ± 0.63 | 1.378 ± 0.013

CCCO [propan-1-ol] + CCCCCC(=O)OCC
[2], x2 = 0
Settings | mass density [kg/m3] | viscosity [mPa·s]
293.15 K | 803.64 ± 0.61 | 2.188 ± 0.021
303.15 K | 795.48 ± 0.62 | 1.713 ± 0.016
313.15 K | 787.02 ± 0.63 | 1.378 ± 0.013

CCCO [propan-1-ol] + CCOC(=O)C(C)CC
[2], x2 = 0
Settings | mass density [kg/m3] | viscosity [mPa·s]
293.15 K | 803.64 ± 0.61 | 2.188 ± 0.021
303.15 K | 795.48 ± 0.62 | 1.713 ± 0.016
313.15 K | 787.02 ± 0.63 | 1.378 ± 0.013
